This note sets out measurements from patent US7723527B2 (Janssen Pharmaceutica NV, priority 2003, dated 2010).

Read-outs that look alike come from different tables or passages of the source.

For this experiment, the target named is T1, human histamine H4 receptor (Homo sapiens, UniProt Q9H3N8).
T1 construct: expressed in transfected cells; host or cells: SK-N-MC cells or COS7 cells, transiently transfected; cell membranes used
Nature of the experiment: Binding assay on recombinant human histamine H4 receptor (3H-histamine displacement). An outline of the steps:
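Membranes from SK-N-MC or COS7 cells transiently transfected with human H4R, incubated with ^3H-histamine (5-70 nM) at room temperature for 45 min, nonspecific binding with 10,000 nM histamine. Filtration and scintillation counting; compound affinity from displacement of ^3H-ligand across varying concentrations.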

[1] abbreviates: competition binding with 3H-histamine, membranes of SK-N-MC or COS7 cells expressing human H4 receptor, Cheng-Prusoff, KD 5 nM, ligand 5 nM.

T1 sequence (Q9H3N8 whole entry): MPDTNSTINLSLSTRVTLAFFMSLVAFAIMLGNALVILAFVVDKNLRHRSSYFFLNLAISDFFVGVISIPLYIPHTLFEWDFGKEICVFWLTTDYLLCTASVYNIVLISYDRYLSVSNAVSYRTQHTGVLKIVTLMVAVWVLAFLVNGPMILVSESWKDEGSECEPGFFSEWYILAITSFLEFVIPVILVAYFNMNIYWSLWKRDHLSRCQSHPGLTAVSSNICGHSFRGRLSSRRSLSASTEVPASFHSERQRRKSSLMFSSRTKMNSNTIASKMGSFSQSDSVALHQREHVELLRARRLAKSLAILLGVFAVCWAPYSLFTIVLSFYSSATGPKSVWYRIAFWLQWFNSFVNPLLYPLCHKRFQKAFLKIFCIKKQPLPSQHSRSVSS

The Ki is a measure of affinity in units of concentration, obtained from inhibition or displacement. In the case of `Cc1cc(C)c2nc(-c3cccc(OCCCCN4CCCN(C)CC4)c3)[nH]c2c1` [Example 79, 4,6-Dimethyl-2-{3-[4-(4-methyl-[1,4]diazepan-1-yl)-butoxy]-phenyl}-1H-benzoimidazole], the Ki under setting [1] turned out to be 0.014 µM. Take `CN1CCN(C(=O)CCCOc2cccc(-c3nc4cc(C(C)(C)C)ccc4[nH]3)c2)CC1` [Example 13, 4-[3-(5-tert-Butyl-1H-benzoimidazol-2-yl)-phenoxy]-1-(4-methyl-piperazin-1-yl)-butan-1-one]: the Ki under setting [1] is 0.257 µM.

For `Cc1cc(OCCCC2=CCN(C)CC2)ccc1-c1nc2c(C)c(F)ccc2[nH]1` [Example 94, 5-Fluoro-4-methyl-2-{2-methyl-4-[3-(1-methyl-1,2,3,6-tetrahydro-pyridin-4-yl)-propoxy]-phenyl}-1H-benzoimidazole], the Ki under setting [1] amounted to 0.013 µM. As for `CN1CCC(CCCOc2ccc(-c3nc4ccccc4[nH]3)cc2)CC1` [Example 65, 2-{4-[3-(1-Methyl-piperidin-4-yl)-propoxy]-phenyl}-1H-benzoimidazole], the Ki stood at 0.157 µM. With `CN1CCN(CCCOc2ccc(-c3nc4cc(Cl)c(F)cc4[nH]3)c(Cl)c2)CC1` [Example 37, 5-Chloro-2-{2-chloro-4-[3-(4-methyl-piperazin-1-yl)-propoxy]-phenyl}-6-fluoro-1H-benzoimidazole], the Ki under setting [1] worked out at 0.036 µM. On the same count and under the same terms, for `Cc1c(F)ccc2[nH]c(-c3ccnc(OCCCCN4CCCN(C)CC4)c3)nc12` [Example 143, 5-Fluoro-4-methyl-2-{2-[4-(4-methyl-[1,4]diazepan-1-yl)-butoxy]-pyridin-4-yl}-1H-benzoimidazole] the value was 0.006 µM; for `Cc1cc2[nH]c(-c3ccc(OCCCN4CCCN(C)CC4)c(Cl)c3)nc2cc1Cl` [Example 10, 5-Chloro-2-{3-chloro-4-[3-(4-methyl-[1,4]diazepan-1-yl)-propoxy]-phenyl}-6-methyl-1H-benzoimidazole], 0.089 µM. For the compound `Cc1cc(C)c2nc(-c3ccnc(OCCCCC4CCNCC4)c3)[nH]c2c1` [Example 153, 4,6-Dimethyl-2-[2-(4-piperidin-4-yl-butoxy)-pyridin-4-yl]-1H-benzoimidazole], under setting [1], the Ki was 0.179 µM. Same read-out and setting: then `CN1CCN(CCCOc2ccc(-c3nc4cc(Cl)c(Cl)cc4[nH]3)cc2Cl)CC1` [Example 40, 5,6-Dichloro-2-{3-chloro-4-[3-(4-methyl-piperazin-1-yl)-propoxy]-phenyl}-1H-benzoimidazole], with 0.074 µM. On the same count and under the same terms, for `Cc1cccc2[nH]c(-c3cnc(OCCCC4CCN(C)CC4)cc3Cl)nc12` [Example 116, 2-{4-Chloro-6-[3-(1-methyl-piperidin-4-yl)-propoxy]-pyridin-3-yl}-4-methyl-1H-benzoimidazole] the value was 0.012 µM.

As to `Cc1cnc(OCCCCC2CCN(C)CC2)cc1-c1nc2cc(Cl)c(F)cc2[nH]1` [Example 166, 5-Chloro-6-fluoro-2-{5-methyl-2-[4-(1-methyl-piperidin-4-yl)-butoxy]-pyridin-4-yl}-1H-benzoimidazole], under setting [1], the Ki was found to be 0.006 µM. For `Cc1cccc2[nH]c(-c3ccnc(OCCCCN4CCN(C)CC4)c3)nc12` [Example 139, 4-Methyl-2-{2-[4-(4-methyl-piperazin-1-yl)-butoxy]-pyridin-4-yl}-1H-benzoimidazole], the Ki under setting [1] was determined as 0.069 µM.

On to `Cc1cc2[nH]c(-c3ccc(OCCCN4CCN(C)CC4)c(Cl)c3)nc2cc1Cl` [Example 18, 5-Chloro-2-{3-chloro-4-[3-(4-methyl-piperazin-1-yl)-propoxy]-phenyl}-6-methyl-1H-benzoimidazole], for which the inhibition constant Ki under setting [1] was 0.064 µM. Still for that read-out and setting: for `Cc1ccc2[nH]c(-c3ccnc(OCCCCN4CCCN(C)CC4)c3)nc2c1C` [Example 144, 4,5-Dimethyl-2-{2-[4-(4-methyl-[1,4]diazepan-1-yl)-butoxy]-pyridin-4-yl}-1H-benzoimidazole] the value was 0.008 µM; for `CN1CCC(CCCOc2ccc(-c3nc4cc(C(C)(C)C)ccc4[nH]3)cc2Cl)CC1` [Example 58, 5-tert-Butyl-2-{3-chloro-4-[3-(1-methyl-piperidin-4-yl)-propoxy]-phenyl}-1H-benzoimidazole], 0.101 µM; for `Cc1ccc2[nH]c(-c3ccc(OCCCC4CCN(C)CC4)cc3Cl)nc2c1C` [Example 59, 2-{2-Chloro-4-[3-(1-methyl-piperidin-4-yl)-propoxy]-phenyl}-4,5-dimethyl-1H-benzoimidazole], 0.086 µM. For `CCN1CCC(CCCOc2ccc(-c3nc4c(C)cc(Cl)cc4[nH]3)c(C)c2)CC1` [Example 90, 6-Chloro-2-{4-[3-(1-ethyl-piperidin-4-yl)-propoxy]-2-methyl-phenyl}-4-methyl-1H-benzoimidazole], the Ki under setting [1] was 0.073 µM. For the compound `Cc1ccc2[nH]c(-c3ccc(OCCCN4CCN(C)CC4)cc3Cl)nc2c1C` [Example 1, 2-{2-Chloro-4-[3-(4-methyl-piperazin-1-yl)-propoxy]-phenyl}-4,5-dimethyl-1H-benzoimidazole], under setting [1], the Ki is 0.046 µM.

`Cc1c(F)ccc2[nH]c(-c3cnc(OCCCC4CCN(C)CC4)cc3Cl)nc12` [Example 115, 2-{4-Chloro-6-[3-(1-methyl-piperidin-4-yl)-propoxy]-pyridin-3-yl}-5-fluoro-4-methyl-1H-benzoimidazole]: the Ki under setting [1] was 0.004 µM. Still for that read-out and setting: then `CN1CCN(CCCOc2c(Br)cc(-c3nc4cc(C(C)(C)C)ccc4[nH]3)cc2Br)CC1` [Example 52, 5-tert-Butyl-2-{3,5-dibromo-4-[3-(4-methyl-piperazin-1-yl)-propoxy]-phenyl}-1H-benzoimidazole], with 0.641 µM.

For `Cc1ccc2[nH]c(-c3ccc(OCCCC4CCN(C)CC4)cc3)nc2c1` [Example 64, 5-Methyl-2-{4-[3-(1-methyl-piperidin-4-yl)-propoxy]-phenyl}-1H-benzoimidazole], under setting [1], the Ki was found to be 0.121 µM. As to `Cc1c(F)ccc2[nH]c(-c3cccc(OCCCOC4CCN(C)CC4)c3)nc12` [Example 102, 6-Fluoro-7-methyl-2-{3-[3-(1-methyl-piperidin-4-yloxy)-propoxy]-phenyl}-1H-benzoimidazole], the Ki under setting [1] came out at 0.321 µM.

With `Cc1c(F)ccc2[nH]c(-c3ccc(OCCCC4CCN(C)CC4)cc3CN(C)C)nc12` [Example 83, {2-(5-Fluoro-4-methyl-1H-benzoimidazol-2-yl)-5-[3-(1-methyl-piperidin-4-yl)-propoxy]-benzyl}-dimethyl-amine], under setting [1], the inhibitory constant (Ki) turned out to be 0.161 µM. Regarding `Cc1cc(C)c2nc(-c3ccnc(OCCCCC4CCN(C)CC4)c3)[nH]c2c1` [Example 145, 4,6-Dimethyl-2-{2-[4-(1-methyl-piperidin-4-yl)-butoxy]-pyridin-4-yl}-1H-benzoimidazole], the Ki under setting [1] was 0.003 µM.

As to `CN1CCN(CCCOc2ccc(-c3nc4ccccc4[nH]3)cc2)CC1` [Example 81, 2-{4-[3-(4-Methyl-piperazin-1-yl)-propoxy]-phenyl}-1H-benzoimidazole], under setting [1], the Ki came out at 0.15 µM. Still for that read-out and setting: for `Cc1ccc2[nH]c(-c3ccc(OCCCN4CCN(C)CC4)c4ccccc34)nc2c1` [Example 12, 5-Methyl-2-{4-[3-(4-methyl-piperazin-1-yl)-propoxy]-naphthalen-1-yl}-1H-benzoimidazole] the value was 0.224 µM. On the same count and under the same terms, for `CN1CCN(CCCOc2ccc(-c3nc4cc(OC(F)(F)F)ccc4[nH]3)c(Cl)c2)CC1` [Example 3, 2-{2-Chloro-4-[3-(4-methyl-piperazin-1-yl)-propoxy]-phenyl}-5-trifluoromethoxy-1H-benzoimidazole] the value was 0.021 µM; for `Cc1cc(Cl)cc2[nH]c(-c3ccnc(OCCCCN4CCN(C)CC4)c3)nc12` [Example 142, 6-Chloro-4-methyl-2-{2-[4-(4-methyl-piperazin-1-yl)-butoxy]-pyridin-4-yl}-1H-benzoimidazole], 0.073 µM. `Cc1cc(-c2nc3cc(C(C)(C)C)ccc3[nH]2)ccc1OCCCC1CCN(C)CC1` [Example 5]: under setting [1], the Ki turned out to be 0.043 µM. In the case of `Cc1cc(OCCCC2CCN(C)CC2)ncc1-c1nc2c(C)c(C)ccc2[nH]1` [Example 112, 4,5-Dimethyl-2-{4-methyl-6-[3-(1-methyl-piperidin-4-yl)-propoxy]-pyridin-3-yl}-1H-benzoimidazole], under setting [1], the Ki is 0.006 µM.

As for `CN1CCN(CCCOc2ccc(-c3nc4cc(C(C)(C)C)ccc4[nH]3)cc2Cl)CC1` [Example 20, 5-tert-Butyl-2-{3-chloro-4-[3-(4-methyl-piperazin-1-yl)-propoxy]-phenyl}-1H-benzoimidazole], the Ki under setting [1] came to 0.065 µM. In the case of `Cc1cc(OCCCN2CCN(C)CCC2=O)ccc1-c1nc2cc(C(C)(C)C)ccc2[nH]1` [Example 85, 4-{3-[4-(5-tert-Butyl-1H-benzoimidazol-2-yl)-3-methyl-phenoxy]-propyl}-1-methyl-[1,4]diazepan-5-one], the Ki under setting [1] is 0.039 µM. Consider `Cc1cc(C)c2nc(-c3ccnc(OCCCCC4CCN(C)CC4)c3Cl)[nH]c2c1` [Example 162, 2-{3-Chloro-2-[4-(1-methyl-piperidin-4-yl)-butoxy]-pyridin-4-yl}-4,6-dimethyl-1H-benzoimidazole], for which, under setting [1], the Ki amounted to 0.015 µM. For the compound `Cc1cc(Cl)cc2[nH]c(-c3ccc(OCCCC4CCN(C)CC4)cc3CN(C)C)nc12` [Example 82, {2-(6-Chloro-4-methyl-1H-benzoimidazol-2-yl)-5-[3-(1-methyl-piperidin-4-yl)-propoxy]-benzyl}-dimethyl-amine], under setting [1], the Ki was found to be 0.023 µM. Still for that read-out and setting: for `Cc1c(Cl)ccc2[nH]c(-c3cc(OCCCCC4CCN(C)CC4)ncc3Br)nc12` [Example 133, 2-{5-Bromo-2-[4-(1-methyl-piperidin-4-yl)-butoxy]-pyridin-4-yl}-5-chloro-4-methyl-1H-benzoimidazole] the value was 0.012 µM; for `Cc1cc(C)c2nc(-c3cc(OCCCCC4CCN(C)CC4)ncc3Cl)[nH]c2c1` [Example 169, 2-{5-Chloro-2-[4-(1-methyl-piperidin-4-yl)-butoxy]-pyridin-4-yl}-4,6-dimethyl-1H-benzoimidazole], 0.001 µM.
